Experimental data from patent US20250325677A1, “STAT6 DEGRADERS” (Gilead Sciences, Inc., priority 2024, published 2025).
“And” between values parts separate entries of the source, which are not always exact repeats. Identical values can stand only once.

Columns and labels:
STAT6 = STAT6 (Homo sapiens (Human), UniProt P42226); test: STAT6 degrader assay (HiBiT, HeLa LgBiT clone 4.14); assay type: cell-based; conditions: HeLa LgBiT clone 4.14, 4-24 h; for DC50: geometric mean, given for compounds with >80% Emax, read-out: STAT6 degradation DC50
Outline: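 DC50 (nM) comes from luminescence of non-degraded STAT6 read 0.5 h after Nano-GLO addition, following 4-24 h compound exposure at 37° C. Cells were HeLa clone 4.14 expressing LgBiT with a CRISPR HiBiT tag on endogenous STAT6; 50 μM terfenadine set full degradation.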

eotaxin-3 release = test: Human whole blood eotaxin-3 assay (IL-4 stimulated); assay type: cell-based; conditions: human whole blood, IL-4 0.4 nM, 48 hours; geometric mean; given for compounds with >80% Emax; read-out: Eotaxin-3 EC50
Description: Human Whole Blood Eotaxin-3 Assay
This was a human whole blood assay using recombinant human Interleukin 4 to stimulate the blood and measuring the ability of the test compounds to inhibit eotaxin-3 release. Compounds or media were added to the wells and incubated together with human whole blood for 120 minutes at 37° C. Subsequently, recombinant IL-4 was added at a final concentration of 0.4 nM. The plates were incubated for 48 hours.
Test compounds which inhibited eotaxin-3 release upon stimulation with human IL-4 (E. coli) interfered with the signaling in human whole blood are expected to have activity in human beings. […] The EC50 value indicates at which concentration test compounds were active and in inhibiting the eotaxin-3 release. As eotaxin-3 release is down-stream of STAT6 signaling both STAT6 inhibitors and STAT6 degraders are active in this assay.
The data from the human whole blood eotaxin-3 assay is shown below for Examples 3e27, 3e50, 3e17, and 3e51 (where the effect in % is plotted against the test concentration in M on a log-scale).

Sequence of STAT6 (P42226 whole entry): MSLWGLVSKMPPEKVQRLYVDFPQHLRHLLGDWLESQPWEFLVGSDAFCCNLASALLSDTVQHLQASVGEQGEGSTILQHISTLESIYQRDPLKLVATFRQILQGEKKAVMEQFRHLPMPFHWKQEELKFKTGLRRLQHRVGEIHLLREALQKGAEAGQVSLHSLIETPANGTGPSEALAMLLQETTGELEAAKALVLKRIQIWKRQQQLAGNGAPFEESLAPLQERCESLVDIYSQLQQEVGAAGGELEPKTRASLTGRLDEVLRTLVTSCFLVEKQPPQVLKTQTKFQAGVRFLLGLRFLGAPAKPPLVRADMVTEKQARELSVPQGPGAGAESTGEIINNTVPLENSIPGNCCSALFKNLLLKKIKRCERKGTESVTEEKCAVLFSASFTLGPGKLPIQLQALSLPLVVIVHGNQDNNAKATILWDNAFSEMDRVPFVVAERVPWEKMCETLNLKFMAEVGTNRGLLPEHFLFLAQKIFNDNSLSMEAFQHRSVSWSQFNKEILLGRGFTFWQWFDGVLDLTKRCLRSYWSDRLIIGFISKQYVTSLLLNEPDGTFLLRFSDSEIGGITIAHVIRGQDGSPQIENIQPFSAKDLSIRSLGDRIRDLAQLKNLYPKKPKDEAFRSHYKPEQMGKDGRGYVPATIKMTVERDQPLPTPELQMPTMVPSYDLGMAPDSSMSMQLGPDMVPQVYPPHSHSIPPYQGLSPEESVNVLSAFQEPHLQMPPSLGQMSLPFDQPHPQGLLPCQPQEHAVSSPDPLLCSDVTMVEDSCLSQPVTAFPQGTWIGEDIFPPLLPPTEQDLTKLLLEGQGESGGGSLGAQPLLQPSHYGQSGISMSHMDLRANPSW

| Structure (SMILES) | DC50 (STAT6) | EC50 (eotaxin-3 release) [nM] | Emax (STAT6; read-out: STAT6 degradation Emax (%)) [%] |
| --- | --- | --- | --- |
| Cn1c(CN2CCC(c3ccc(C(=O)N4CCC(CN5CCN(Cc6ccc7c(c6)n(C)c(=O)n7C6CCC(=O)NC6=O)CC5)CC4)cc3)CC2)cc2c(-c3ccc(N)nc3)ccnc21 (stereo not shown) [Example 3e2, 3-(5-((4-((1-(4-(1-((4-(6-aminopyridin-3-yl)-1-methyl-1H-pyrrolo[2,3-b]pyridin-2-yl)methyl)piperidin-4-yl)benzoyl)piperidin-4-yl)methyl)piperazin-1-yl)methyl)-3-methyl-2-oxo-2,3-dihydro-1H-benzo[d]imidazol-1-yl)piperidine-2,6-dione] | 4.6 nM | 98.7 | – |
| COCc1nc2cc(-c3ccnc4c3cc(CN3CCC(c5ccc(C(=O)N6CCC(CN7CCN(Cc8ccc9c(c8)n(C)c(=O)n9C8CCC(=O)NC8=O)CC7)CC6)cc5)CC3)n4C)ccc2[nH]1 (stereo not shown) [Example 3e3, 3-(5-((4-((1-(4-(1-((4-(2-(methoxymethyl)-1H-benzo[d]imidazol-5-yl)-1-methyl-1H-pyrrolo[2,3-b]pyridin-2-yl)methyl)piperidin-4-yl)benzoyl)piperidin-4-yl)methyl)piperazin-1-yl)methyl)-3-methyl-2-oxo-2,3-dihydro-1H-benzo[d]imidazol-1-yl)piperidine-2,6-dione] | 0.8 nM | 14.4 | – |
| C[C@H]1CN(Cc2ccc3c(c2)n(C)c(=O)n3C2CCC(=O)NC2=O)CCN1CC1CCN(C(=O)c2ccc(C3CCN(Cc4cc5c(-c6ccc(N)nc6)ccnc5n4C)CC3)cc2)CC1 (stereo partly drawn) [Example 3e9, 3-(5-(((S)-4-((1-(4-(1-((4-(6-aminopyridin-3-yl)-1-methyl-1H-pyrrolo[2,3-b]pyridin-2-yl)methyl)piperidin-4-yl)benzoyl)piperidin-4-yl)methyl)-3-methylpiperazin-1-yl)methyl)-3-methyl-2-oxo-2,3-dihydro-1H-benzo[d]imidazol-1-yl)piperidine-2,6-dione] | 0.75 nM | 31 | – |
| C[C@H]1CN(Cc2ccc3c(c2)n(C2CC2)c(=O)n3C2CCC(=O)NC2=O)CCN1CC1CCN(C(=O)c2ccc(C3CCN(Cc4cc5c(-c6ccc(N)nc6)ccnc5n4C)CC3)cc2)CC1 (stereo partly drawn) [Example 3e13, 3-(5-(((S)-4-((1-(4-(1-((4-(6-aminopyridin-3-yl)-1-methyl-1H-pyrrolo[2,3-b]pyridin-2-yl)methyl)piperidin-4-yl)benzoyl)piperidin-4-yl)methyl)-3-methylpiperazin-1-yl)methyl)-3-cyclopropyl-2-oxo-2,3-dihydro-1H-benzo[d]imidazol-1-yl)piperidine-2,6-dione] | 0.9 nM and 1.1 nM | 37.6 | – |
| Cn1c(CN2CCC(c3ccc(C(=O)N4CCC(CN5CCN(Cc6cc7c(cc6F)n(C6CCC(=O)NC6=O)c(=O)n7C)CC5)CC4)cc3)CC2)cc2c(-c3ccc(N)nc3)ccnc21 (stereo not shown) [Example 3e15, 3-(5-((4-((1-(4-(1-((4-(6-aminopyridin-3-yl)-1-methyl-1H-pyrrolo[2,3-b]pyridin-2-yl)methyl)piperidin-4-yl)benzoyl)piperidin-4-yl)methyl)piperazin-1-yl)methyl)-6-fluoro-3-methyl-2-oxo-2,3-dihydro-1H-benzo[d]imidazol-1-yl)piperidine-2,6-dione] | – | 135 | 70 to 80 |

Compounds with a lower EC50 (eotaxin-3 release), results first:

| DC50 (STAT6) | EC50 (eotaxin-3 release) [nM] | Emax (STAT6; read-out: STAT6 degradation Emax (%)) [%] | Structure (SMILES) |
| --- | --- | --- | --- |
| 0.4 nM | 1.3 | – | C[C@H]1CN(Cc2ccc3c(c2)n(C)c(=O)n3C2CCC(=O)NC2=O)CCN1CC1CCN(C(=O)c2ccc(C3CCN([C@@H](C)c4cc5c(-c6ccc(N)nc6)ccnc5n4C)CC3)cc2)CC1 (stereo partly drawn) [Example 3e16, 3-(5-(((S)-4-((1-(4-(1-((S)-1-(4-(6-aminopyridin-3-yl)-1-methyl-1H-pyrrolo[2,3-b]pyridin-2-yl)ethyl)piperidin-4-yl)benzoyl)piperidin-4-yl)methyl)-3-methylpiperazin-1-yl)methyl)-3-methyl-2-oxo-2,3-dihydro-1H-benzo[d]imidazol-1-yl)piperidine-2,6-dione] |
| 0.8 nM | 2.8 | – | C[C@H]1CN(Cc2ccc3c(c2)n(C2CC2)c(=O)n3C2CCC(=O)NC2=O)CCN1CC1CCN(C(=O)c2ccc(C3CCN([C@@H](C)c4cc5c(-c6ccc(N)nc6)ccnc5n4C)CC3)cc2)CC1 (stereo partly drawn) [Example 3e17, 3-(5-(((S)-4-((1-(4-(1-((S)-1-(4-(6-aminopyridin-3-yl)-1-methyl-1H-pyrrolo[2,3-b]pyridin-2-yl)ethyl)piperidin-4-yl)benzoyl)piperidin-4-yl)methyl)-3-methylpiperazin-1-yl)methyl)-3-cyclopropyl-2-oxo-2,3-dihydro-1H-benzo[d]imidazol-1-yl)piperidine-2,6-dione] |
| 1.4 nM | 5.5 | – | C[C@@H]1CN(Cc2ccc3c(c2)n(C)c(=O)n3C2CCC(=O)NC2=O)C[C@H](C)N1CC1CCN(C(=O)c2ccc(C3CCN([C@@H](C)c4cc5c(-c6ccc(N)nc6)ccnc5n4C)CC3)cc2)CC1 (stereo partly drawn) [Example 3e18, 3-(5-((4-((1-(4-(1-((S)-1-(4-(6-aminopyridin-3-yl)-1-methyl-1H-pyrrolo[2,3-b]pyridin-2-yl)ethyl)-piperidin-4-yl)benzoyl)piperidin-4-yl)methyl)-3,5-cis-dimethylpiperazin-1-yl)methyl)-3-methyl-2-oxo-2,3-dihydro-1H-benzo[d]imidazol-1-yl)piperidine-2,6-dione] |
| 0.8 nM | 4.2 | – | CC[C@H]1CN(Cc2ccc3c(c2)n(C)c(=O)n3C2CCC(=O)NC2=O)CCN1CC1CCN(C(=O)c2ccc(C3CCN([C@@H](C)c4cc5c(-c6ccc(N)nc6)ccnc5n4C)CC3)cc2)CC1 (stereo partly drawn) [Example 3e23, 3-(5-(((S)-4-((1-(4-(1-((S)-1-(4-(6-aminopyridin-3-yl)-1-methyl-1H-pyrrolo[2,3-b]pyridin-2-yl)ethyl)piperidin-4-yl)benzoyl)piperidin-4-yl)methyl)-3-ethylpiperazin-1-yl)methyl)-3-methyl-2-oxo-2,3-dihydro-1H-benzo[d]imidazol-1-yl)piperidine-2,6-dione] |
| 0.4 nM | 2.7 | – | COCc1nc2cc(-c3ccnc4c3cc([C@H](C)N3CCC(c5ccc(C(=O)N6CCC(CN7CCN(Cc8ccc9c(c8)n(C8CC8)c(=O)n9C8CCC(=O)NC8=O)C[C@@H]7C)CC6)cc5)CC3)n4C)ccc2[nH]1 (stereo partly drawn) [Example 3e27, 3-(3-cyclo-propyl-5-(((S)-4-((1-(4-(1-((S)-1-(4-(2-(methoxymethyl)-1H-benzo[d]imidazol-5-yl)-1-methyl-1H-pyrrolo[2,3-b]pyridin-2-yl)ethyl)piperidin-4-yl)benzoyl)piperidin-4-yl)methyl)-3-methylpiperazin-1-yl)methyl)-2-oxo-2,3-dihydro-1H-benzo[d]imidazol-1-yl)piperidine-2,6-dione] |
| 0.2 nM | 1.1 | – | COC[C@H]1CN(Cc2ccc3c(c2)n(C)c(=O)n3C2CCC(=O)NC2=O)CCN1CC1CCN(C(=O)c2ccc(C3CCN([C@@H](C)c4cc5c(-c6ccc(N)nc6)ccnc5n4C)CC3)cc2)CC1 (stereo partly drawn) [Example 3e28, 3-(5-(((R)-4-((1-(4-(1-((S)-1-(4-(6-aminopyridin-3-yl)-1-methyl-1H-pyrrolo[2,3-b]pyridin-2-yl)ethyl)piperidin-4-yl)benzoyl)piperidin-4-yl)methyl)-3-(methoxymethyl)piperazin-1-yl)methyl)-3-methyl-2-oxo-2,3-dihydro-1H-benzo[d]imidazol-1-yl)piperidine-2,6-dione] |
